The source of these data is patent US20230286970A1, “NOVEL OXADIAZOLE-BASED SELECTIVE HDAC6 INHIBITORS” (ITALFARMACO S.P.A., priority 2020, published 2023).

Where only a bound is given, the exact number is not on record here.

Data set [1] in a line: Stability in human plasma. The note with it: after 4 hours, 37° C.
Data set [2] in a line: Stability in rat plasma. The following applies: after 4 hours, 37° C.
Protocol: In order to evaluate the stability to circulating enzymes, test compounds were incubated in human and rat plasma at 37° C. in a thermostated oscillating bath. Each test compound was incubated at μM concentration (50 μM when the samples were analysed by UV/HPLC, 1 or 2 μM when the samples were analysed by LC-MS/MS) for 0, 15, 30 minutes and 1, 2 and 4 hours. The reaction was stopped placing samples on ice bath and adding acidified acetonitrile. After centrifugation (10 minutes at 14000 rpm) an aliquot of the supernatant was diluted with water, filtered with 0.45 μm regenerated cellulose syringe filters and injected in HPLC-UV or in LC-MS/MS. The percentage of the remaining amount at the various incubation times with respect to the initial amount were calculated. The half-life in plasma was also calculated.
Data set [3] in a line: Stability to Phase I metabolism in human S9 liver fraction. The following applies: after 90 minutes, 37° C.
Data set [4] has as its target recombinant human HDAC6 (Homo sapiens (Human), UniProt Q9UBN7). Description: Enzymatic screening, HDAC6 inhibition (fluorogenic FdL_G substrate). It counts as biochemical. The gist of the method: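 Enzyme was preincubated with compound (8 doses, triplicate, 1% DMSO) in 25 mM Tris-HCl pH 8, 130 mM NaCl, 0.05% Tween-20, 10% glycerol, with BSA. A FLUOR DE LYS-Green substrate was then added, and fluorescence was read after developer plus 2 μM TSA.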

Data set [5] concerns the target recombinant human HDAC1 (Homo sapiens (Human), UniProt Q13547). Kind of data set: Enzymatic screening, HDAC1 inhibition (fluorogenic FdL_G substrate). In kind it is biochemical. Put shortly:
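Recombinant human HDAC1 inhibition was measured fluorometrically using the FLUOR DE LYS-Green (FdL_G) substrate. Compounds at 8 doses (1% DMSO final) in Tris-HCl pH 8 buffer with NaCl, Tween-20 and glycerol were preincubated in triplicate with enzyme and 1 mg/mL BSA, then given substrate. Developer I plus 2 μM TSA was added, and fluorescence read after 25 minutes in the dark.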

The nature of data set [6]: Stability to Phase I metabolism in rat S9 liver fraction. The note with it: after 90 minutes, 37° C.
Protocol: Test compounds were incubated in rat and human liver S9 fraction at 37° C. up to 90 minutes in order to evaluate their stability to Phase I metabolism by hepatic enzymes. Each test compound was incubated at μM concentration (50 μM when the samples were analysed by UV/HPLC, 1 or 2 μM when the samples were analysed by LC-MS/MS) with S9 fraction (protein content 2 mg/m L) in 100 mM phosphate buffer (pH 7.4), 3.3 mM MgCl2 and 1.3 mM NADPH for 0, 10, 30, 60 and 90 minutes at 37° C. in a thermostated oscillating bath. The reaction was stopped placing samples on ice bath and adding acidified acetonitrile. After centrifugation (10 minutes at 14000 rpm) an aliquot of the supernatant was diluted with water, filtered with 0.45 μm regenerated cellulose syringe filters and injected in HPLC-UV or in LC-MS/MS. The percentage of the remaining amount at the various incubation times with respect to the initial amount were calculated.

What is called IC50 is the concentration at which inhibition is half-maximal.

Sequence of recombinant human HDAC1 (Q13547 whole entry): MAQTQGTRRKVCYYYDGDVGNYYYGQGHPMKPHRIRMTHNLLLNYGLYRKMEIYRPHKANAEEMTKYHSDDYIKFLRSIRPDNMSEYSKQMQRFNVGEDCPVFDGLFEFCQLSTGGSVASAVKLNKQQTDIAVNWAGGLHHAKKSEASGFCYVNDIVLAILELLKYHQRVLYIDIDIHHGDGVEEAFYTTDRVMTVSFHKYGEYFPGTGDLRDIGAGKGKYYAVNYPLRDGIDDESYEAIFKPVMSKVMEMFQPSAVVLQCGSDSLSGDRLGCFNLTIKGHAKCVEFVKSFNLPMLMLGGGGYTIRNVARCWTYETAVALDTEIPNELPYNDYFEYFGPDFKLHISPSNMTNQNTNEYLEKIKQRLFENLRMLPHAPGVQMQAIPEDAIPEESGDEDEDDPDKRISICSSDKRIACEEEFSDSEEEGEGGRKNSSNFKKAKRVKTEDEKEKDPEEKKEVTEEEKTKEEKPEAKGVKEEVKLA
Sequence of recombinant human HDAC6 (Q9UBN7 whole entry): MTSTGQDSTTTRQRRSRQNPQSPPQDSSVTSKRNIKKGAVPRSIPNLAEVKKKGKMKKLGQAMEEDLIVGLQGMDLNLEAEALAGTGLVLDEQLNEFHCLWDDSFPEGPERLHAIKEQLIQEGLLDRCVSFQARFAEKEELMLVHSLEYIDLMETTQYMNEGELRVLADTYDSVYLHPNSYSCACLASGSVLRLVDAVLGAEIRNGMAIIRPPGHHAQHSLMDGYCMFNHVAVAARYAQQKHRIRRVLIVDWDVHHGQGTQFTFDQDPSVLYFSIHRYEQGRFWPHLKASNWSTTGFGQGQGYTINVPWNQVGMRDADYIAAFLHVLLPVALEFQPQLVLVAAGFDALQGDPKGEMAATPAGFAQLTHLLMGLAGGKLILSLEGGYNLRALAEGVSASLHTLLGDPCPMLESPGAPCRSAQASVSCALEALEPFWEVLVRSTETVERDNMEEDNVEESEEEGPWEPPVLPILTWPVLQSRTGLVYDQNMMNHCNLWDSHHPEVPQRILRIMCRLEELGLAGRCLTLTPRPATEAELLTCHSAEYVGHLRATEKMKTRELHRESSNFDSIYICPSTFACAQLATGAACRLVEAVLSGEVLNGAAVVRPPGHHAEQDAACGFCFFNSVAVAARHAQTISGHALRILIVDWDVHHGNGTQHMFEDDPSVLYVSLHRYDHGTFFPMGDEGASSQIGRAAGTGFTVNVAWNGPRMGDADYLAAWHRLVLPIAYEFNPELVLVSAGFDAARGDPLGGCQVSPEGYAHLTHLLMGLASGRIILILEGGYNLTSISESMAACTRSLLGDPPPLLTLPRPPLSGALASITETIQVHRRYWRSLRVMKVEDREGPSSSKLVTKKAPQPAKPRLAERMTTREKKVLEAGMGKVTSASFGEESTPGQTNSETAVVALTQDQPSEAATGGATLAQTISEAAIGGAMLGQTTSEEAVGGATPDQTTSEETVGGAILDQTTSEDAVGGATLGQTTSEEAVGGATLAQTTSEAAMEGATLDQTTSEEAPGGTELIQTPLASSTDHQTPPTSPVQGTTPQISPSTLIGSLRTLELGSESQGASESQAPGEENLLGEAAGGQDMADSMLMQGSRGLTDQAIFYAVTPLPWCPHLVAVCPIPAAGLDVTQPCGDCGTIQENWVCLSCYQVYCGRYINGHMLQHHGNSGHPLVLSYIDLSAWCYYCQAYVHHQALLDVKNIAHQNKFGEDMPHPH

Consider `Nc1ccc(-c2cn(Cc3cc(F)c(-c4nnc(C(F)F)o4)cc3F)nn2)cn1` [compound 39, 5-(1-(4-(5-(difluoromethyl)-1,3,4-oxadiazol-2-yl)-2,5-difluorobenzyl)-1H-1,2,3-triazol-4-yl)pyridin-2-amine], for which the “residual percentage in HUMAN PLASMA” value in data set [1] turned out to be 83%. In data set [2], the “residual percentage in RAT PLASMA” value came out at 71%. The “residual percentage in HUMAN S9 FRACTION” value in data set [3] is 100%. Also, the IC50 in data set [4] is 18 nM; in data set [5] it was above 200000 nM. Besides, the “residual percentage in RAT S9 FRACTION” value in data set [6] was 96%.

As for `NC(=O)c1cccc(-c2nnn(Cc3ccc(-c4nnc(C(F)F)o4)cc3F)n2)c1` [compound 50, 3-(2-(4-(5-(difluoromethyl)-1,3,4-oxadiazol-2-yl)-2-fluorobenzyl)-2H-tetrazol-5-yl)benzamide], the “residual percentage in HUMAN PLASMA” value in data set [1] worked out at 89%. Moreover, the “residual percentage in RAT PLASMA” value in data set [2] came out at 87%. For the same molecule, in data set [3], the “residual percentage in HUMAN S9 FRACTION” value is listed as 95%. Moreover, the 50% inhibitory concentration (IC50) in data set [4] was 22 nM; in data set [5], above 200000 nM. In data set [6], the “residual percentage in RAT S9 FRACTION” value is reported as 66%.

As to `COc1ncccc1-c1cn(Cc2ccc(-c3nnc(C(F)F)o3)cn2)nn1` [compound 53, 2-(difluoromethyl)-5-(6-((4-(2-methoxypyridin-3-yl)-1H-1,2,3-triazol-1-yl)methyl)pyridin-3-yl)-1,3,4-oxadiazole], in data set [1], the “residual percentage in HUMAN PLASMA” value was 77%. In addition, the “residual percentage in RAT PLASMA” value in data set [2] is given as 78%. The “residual percentage in HUMAN S9 FRACTION” value in data set [3] is 88%. Moreover, the IC50 is 23 nM in data set [4] and above 200000 nM in data set [5]. Moreover, the “residual percentage in RAT S9 FRACTION” value in data set [6] is listed as 91%.

For the molecule `Nc1ccc(-c2nnn(Cc3ccc(-c4nnc(C(F)F)o4)cc3)n2)cn1` [compound 64, 5-(2-(4-(5-(difluoromethyl)-1,3,4-oxadiazol-2-yl)benzyl)-2H-tetrazol-5-yl)pyridin-2-amine], the “residual percentage in HUMAN PLASMA” value in data set [1] was found to be 69%. Moreover, the “residual percentage in RAT PLASMA” value in data set [2] is given as 70%. Also, in data set [3], the “residual percentage in HUMAN S9 FRACTION” value is recorded as 103%. The results for the 50% inhibitory concentration (IC50) in data set [4] and in data set [5] were 28 nM and above 200000 nM, respectively. In addition, the “residual percentage in RAT S9 FRACTION” value in data set [6] came out at 9%.

As to `Cc1ncc(-c2nnn(Cc3ccc(-c4nnc(C(F)F)o4)cc3)n2)cc1N` [compound 65, 5-(2-(4-(5-(difluoromethyl)-1,3,4-oxadiazol-2-yl)benzyl)-2H-tetrazol-5-yl)-2-methylpyridin-3-amine], in data set [1], the “residual percentage in HUMAN PLASMA” value was found to be 94%. Moreover, the “residual percentage in RAT PLASMA” value in data set [2] was found to be 76%. Besides, in data set [3], the “residual percentage in HUMAN S9 FRACTION” value amounted to 99%. The values for the IC50 in data set [4] and in data set [5] were 28 nM and above 200000 nM, respectively. The “residual percentage in RAT S9 FRACTION” value in data set [6] is recorded as 35%.

Take `Fc1cc(-c2nnc(C(F)F)o2)cc(F)c1Cn1cc(-c2cnc3cccnn23)nn1` [compound 67, 2-(3,5-difluoro-4-((4-(imidazo[1,2-b]pyridazin-3-yl)-1H-1,2,3-triazol-1-yl)methyl)phenyl)-5-(difluoromethyl)-1,3,4-oxadiazole]: the “residual percentage in HUMAN PLASMA” value in data set [1] amounted to 74%. For the same molecule, in data set [2], the “residual percentage in RAT PLASMA” value stood at 74%. Besides, in data set [3], the “residual percentage in HUMAN S9 FRACTION” value is reported as 77%. Besides, the IC50 was 29 nM in data set [4] and above 200000 nM in data set [5]. Moreover, the “residual percentage in RAT S9 FRACTION” value in data set [6] stood at 39%.

`O=C(c1cccc(-c2nnn(Cc3ccc(-c4nnc(C(F)F)o4)cn3)n2)c1)N1CCOCC1` [compound 69, (3-(2-((5-(5-(difluoromethyl)-1,3,4-oxadiazol-2-yl)pyridin-2-yl)methyl)-2H-tetrazol-5-yl)phenyl)(morpholino)methanone]: the “residual percentage in HUMAN PLASMA” value in data set [1] was 79%. Also, the “residual percentage in RAT PLASMA” value in data set [2] is reported as 79%. Besides, the “residual percentage in HUMAN S9 FRACTION” value in data set [3] is reported as 97%. For the same molecule, the results for the 50% inhibitory concentration (IC50) in data set [4] and in data set [5] were 30 nM and above 200000 nM, respectively. Further, in data set [6], the “residual percentage in RAT S9 FRACTION” value is given as 83%.

For `NC(=O)c1cccc(-c2nnn(Cc3ccc(-c4nnc(C(F)F)o4)cc3)n2)c1` [compound 75, 3-(2-(4-(5-(difluoromethyl)-1,3,4-oxadiazol-2-yl)benzyl)-2H-tetrazol-5-yl)benzamide], in data set [1], the “residual percentage in HUMAN PLASMA” value was found to be 96%. In addition, in data set [2], the “residual percentage in RAT PLASMA” value was 76%. For the same molecule, the “residual percentage in HUMAN S9 FRACTION” value in data set [3] worked out at 85%. The IC50 in data set [4] is 32 nM; in data set [5], above 200000 nM. Moreover, the “residual percentage in RAT S9 FRACTION” value in data set [6] came to 90%.

With `NC(=O)c1cc(-c2nnn(Cc3ccc(-c4nnc(C(F)F)o4)cc3)n2)cnc1N` [compound 76, 2-amino-5-(2-(4-(5-(difluoromethyl)-1,3,4-oxadiazol-2-yl)benzyl)-2H-tetrazol-5-yl)nicotinamide], in data set [1], the “residual percentage in HUMAN PLASMA” value is on record as 74%. In addition, in data set [2], the “residual percentage in RAT PLASMA” value amounted to 73%. Besides, the “residual percentage in HUMAN S9 FRACTION” value in data set [3] was found to be 53%. In addition, the IC50 is 32 nM in data set [4] and above 200000 nM in data set [5]. In addition, the “residual percentage in RAT S9 FRACTION” value in data set [6] is 89%.

As for `Nc1ncc(-c2nnn(Cc3ccc(-c4nnc(C(F)F)o4)cc3)n2)cn1` [compound 79, 5-(2-(4-(5-(difluoromethyl)-1,3,4-oxadiazol-2-yl)benzyl)-2H-tetrazol-5-yl)pyrimidin-2-amine], the “residual percentage in HUMAN PLASMA” value in data set [1] stood at 85%. Moreover, the “residual percentage in RAT PLASMA” value in data set [2] is 77%. For the same molecule, the “residual percentage in HUMAN S9 FRACTION” value in data set [3] was 96%. In addition, the half-maximal inhibitory concentration (IC50) in data set [4] was 33 nM; in data set [5], above 200000 nM. Besides, in data set [6], the “residual percentage in RAT S9 FRACTION” value was 78%.

Take `CN1CCC(NC(=O)c2cccc(-c3nnn(Cc4ccc(-c5nnc(C(F)F)o5)cc4)n3)c2)CC1` [compound 80, 3-(2-(4-(5-(difluoromethyl)-1,3,4-oxadiazol-2-yl)benzyl)-2H-tetrazol-5-yl)-N-(1-methylpiperidin-4-yl)benzamide]: the “residual percentage in HUMAN PLASMA” value in data set [1] came to 97%. Further, the “residual percentage in RAT PLASMA” value in data set [2] was 88%. Moreover, the “residual percentage in HUMAN S9 FRACTION” value in data set [3] was 94%. Further, the concentration for half-maximal inhibition (IC50) in data set [4] was 33 nM; in data set [5] it was above 200000 nM. For the same molecule, in data set [6], the “residual percentage in RAT S9 FRACTION” value was 46%.

For `CN(C)C(=O)c1cccc(-c2nnn(Cc3ccc(-c4nnc(C(F)F)o4)cc3)n2)c1` [compound 81, 3-(2-(4-(5-(difluoromethyl)-1,3,4-oxadiazol-2-yl)benzyl)-2H-tetrazol-5-yl)-N,N-dimethylbenzamide], the “residual percentage in HUMAN PLASMA” value in data set [1] was found to be 87%. In addition, the “residual percentage in RAT PLASMA” value in data set [2] came to 87%. Moreover, the “residual percentage in HUMAN S9 FRACTION” value in data set [3] is recorded as 78%. The IC50 is 33 nM in data set [4] and above 200000 nM in data set [5]. For the same molecule, in data set [6], the “residual percentage in RAT S9 FRACTION” value amounted to 14%.

Turning to `Nc1ncnc2cc(-c3cn(Cc4ccc(-c5nnc(C(F)F)o5)cc4)nn3)ccc12` [compound 84, 7-(1-(4-(5-(difluoromethyl)-1,3,4-oxadiazol-2-yl)benzyl)-1H-1,2,3-triazol-4-yl)quinazolin-4-amine], the “residual percentage in HUMAN PLASMA” value in data set [1] worked out at 80%. In addition, the “residual percentage in RAT PLASMA” value in data set [2] was 60%. For the same molecule, in data set [3], the “residual percentage in HUMAN S9 FRACTION” value came to 85%. The 50% inhibitory concentration (IC50) was 33 nM in data set [4] and above 200000 nM in data set [5]. In addition, the “residual percentage in RAT S9 FRACTION” value in data set [6] came to 62%.

As for `Nc1cncc(-c2nnn(Cc3ccc(-c4nnc(C(F)F)o4)cc3)n2)c1` [compound 90, 5-(2-(4-(5-(difluoromethyl)-1,3,4-oxadiazol-2-yl)benzyl)-2H-tetrazol-5-yl)pyridin-3-amine], the “residual percentage in HUMAN PLASMA” value in data set [1] is 80%. In addition, the “residual percentage in RAT PLASMA” value in data set [2] came to 88%. For the same molecule, the “residual percentage in HUMAN S9 FRACTION” value in data set [3] stood at 83%. The IC50 in data set [4] is 34 nM; in data set [5], above 200000 nM. For the same molecule, in data set [6], the “residual percentage in RAT S9 FRACTION” value amounted to 13%.

In the case of `CCNC(=O)c1cccc(-c2nnn(Cc3ccc(-c4nnc(C(F)F)o4)cc3)n2)c1` [compound 91, 3-(2-(4-(5-(difluoromethyl)-1,3,4-oxadiazol-2-yl)benzyl)-2H-tetrazol-5-yl)-N-ethylbenzamide], the “residual percentage in HUMAN PLASMA” value in data set [1] is 78%. Further, the “residual percentage in RAT PLASMA” value in data set [2] is given as 93%. Moreover, the “residual percentage in HUMAN S9 FRACTION” value in data set [3] was 74%. The figures for the IC50 in data set [4] and in data set [5] were 35 nM and above 200000 nM, respectively. In addition, the “residual percentage in RAT S9 FRACTION” value in data set [6] was found to be 68%.

In the case of `O=C(c1cccc(-c2nnn(Cc3ccc(-c4nnc(C(F)F)o4)cc3F)n2)c1)N1CCOCC1` [compound 93, (3-(2-(4-(5-(difluoromethyl)-1,3,4-oxadiazol-2-yl)-2-fluorobenzyl)-2H-tetrazol-5-yl)phenyl)(morpholino)methanone], the “residual percentage in HUMAN PLASMA” value in data set [1] is 74%. In addition, the “residual percentage in RAT PLASMA” value in data set [2] was found to be 79%. Moreover, in data set [3], the “residual percentage in HUMAN S9 FRACTION” value turned out to be 72%. Further, the figures for the IC50 in data set [4] and in data set [5] were 36 nM and above 200000 nM, respectively. Further, the “residual percentage in RAT S9 FRACTION” value in data set [6] was 59%.

Consider `O=C1NCc2ccc(-c3nnn(Cc4ccc(-c5nnc(C(F)F)o5)c(F)c4)n3)cc21` [compound 97, 6-(2-(4-(5-(difluoromethyl)-1,3,4-oxadiazol-2-yl)-3-fluorobenzyl)-2H-tetrazol-5-yl)isoindolin-1-one], for which the “residual percentage in HUMAN PLASMA” value in data set [1] worked out at 76%. Moreover, the “residual percentage in RAT PLASMA” value in data set [2] is on record as 96%. Also, in data set [3], the “residual percentage in HUMAN S9 FRACTION” value is reported as 84%. Moreover, the IC50 in data set [4] was 38 nM; in data set [5], above 200000 nM. In data set [6], the “residual percentage in RAT S9 FRACTION” value is 95%.
